Read-outs that look alike come from different tables or passages of the source.

The text below walks through data of US7507732B2, “Cyclopentapyridine and tetrahydroquinoline derivatives” (Pfizer Inc., priority 2005, dated 2009).

The target of one data set is T1, human 5HT2c receptor (Homo sapiens, UniProt P28335).
T1 construct: expressed in transfected cells; host or cells: Swiss 3T3 mouse cells (ATCC)
T1 sequence (P28335 33-458): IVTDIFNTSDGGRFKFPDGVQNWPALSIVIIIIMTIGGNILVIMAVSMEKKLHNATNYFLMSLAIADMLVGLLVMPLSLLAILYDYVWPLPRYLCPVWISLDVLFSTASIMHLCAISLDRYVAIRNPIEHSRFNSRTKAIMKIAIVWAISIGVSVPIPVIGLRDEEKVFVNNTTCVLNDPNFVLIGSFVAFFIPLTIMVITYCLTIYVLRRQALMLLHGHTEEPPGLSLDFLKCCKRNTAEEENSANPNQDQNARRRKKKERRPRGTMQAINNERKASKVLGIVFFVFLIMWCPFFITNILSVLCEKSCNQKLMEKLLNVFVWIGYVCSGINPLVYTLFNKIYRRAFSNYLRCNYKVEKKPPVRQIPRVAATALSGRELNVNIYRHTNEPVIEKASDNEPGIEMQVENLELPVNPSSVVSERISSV
Put plainly: 5HT2c Binding Procedure (competition binding against 3H-5HT, membranes of transfected Swiss 3T3 mouse cells). The procedure:
Affinity of compounds at the serotonin 5HT2c binding site is determined by competition binding in Swiss 3T3 mouse cells (available from the American Type Culture Collection (ATCC), Manassas, Va.) transfected with the human 5HT2c receptor against ^3H-5HT.

Another data set has as its target T2, rat 5HT2a receptor (Rattus norvegicus, UniProt P14842).
T2 construct: expressed in transfected cells; host or cells: NIH 3T3 mouse cells
The experiment in a line: 5HT2a Binding Procedure (competition binding using 125I-DOI, membranes of transfected NIH 3T3 mouse cells). The procedure: Affinity of compounds at the serotonin 5HT2a binding site is determined by competition binding in NIH 3T3 mouse cells transfected with the rat 5HT2a receptor using 125I-DOI.

The next data set has as its target human 5HT2b receptor (Homo sapiens, UniProt P41595). Put plainly: 5HT2b Binding Procedure (competition binding with 3H-LSD, CHO cell membranes).
The conditions of data set [1]: cited from earlier work.
The mark [2] stands for this setting: receptor binding, 5HT2c, read-out: 2cKi.
Setting [3] is: receptor binding, 5HT2a, read-out: 2aKi.

Sequence of human 5HT2b receptor (P41595 whole entry): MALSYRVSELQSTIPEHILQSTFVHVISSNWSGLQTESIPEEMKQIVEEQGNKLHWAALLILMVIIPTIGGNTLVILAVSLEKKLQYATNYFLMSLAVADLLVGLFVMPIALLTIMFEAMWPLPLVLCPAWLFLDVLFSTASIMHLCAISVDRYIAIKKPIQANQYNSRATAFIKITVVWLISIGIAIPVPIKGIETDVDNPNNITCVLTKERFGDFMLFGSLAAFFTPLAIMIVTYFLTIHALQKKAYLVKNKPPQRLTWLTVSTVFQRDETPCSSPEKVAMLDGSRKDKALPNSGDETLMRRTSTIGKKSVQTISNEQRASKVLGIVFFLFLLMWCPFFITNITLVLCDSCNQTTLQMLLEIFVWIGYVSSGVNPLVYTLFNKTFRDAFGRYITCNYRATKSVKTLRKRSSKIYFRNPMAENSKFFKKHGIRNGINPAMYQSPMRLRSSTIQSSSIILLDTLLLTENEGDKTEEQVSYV
T2 sequence (P14842 whole entry): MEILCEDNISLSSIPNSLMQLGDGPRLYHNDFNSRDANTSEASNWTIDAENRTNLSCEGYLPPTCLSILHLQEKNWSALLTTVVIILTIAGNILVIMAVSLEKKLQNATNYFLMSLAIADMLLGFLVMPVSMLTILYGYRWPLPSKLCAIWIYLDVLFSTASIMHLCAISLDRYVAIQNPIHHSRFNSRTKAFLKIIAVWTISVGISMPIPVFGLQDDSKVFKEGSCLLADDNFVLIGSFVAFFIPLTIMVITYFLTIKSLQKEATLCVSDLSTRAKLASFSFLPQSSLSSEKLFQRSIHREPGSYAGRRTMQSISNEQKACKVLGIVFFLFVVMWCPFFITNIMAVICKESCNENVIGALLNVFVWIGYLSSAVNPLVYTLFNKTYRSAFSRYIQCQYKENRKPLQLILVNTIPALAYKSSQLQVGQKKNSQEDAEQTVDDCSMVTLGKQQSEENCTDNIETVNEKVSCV
Procedure for human 5HT2b receptor: Affinity of compounds for the human 5HT2b receptor is determined by competition binding using membranes prepared from Chinese hamster ovary (CHO) cells containing the tetracycline operator (Flp-In Trex system—Invitrogen) that were engineered to express the human 5HT2b receptor. […] The supernatant was removed and discarded, while the pellet was resuspended in homogenization buffer, then centrifuged for 20 minutes at 25,000×g at 4° C. The supernatant was discarded while the pellet (containing membranes) was resuspended in homogenization buffer, and the membranes were aliquoted and frozen at −80° C. The binding assay was set up in 96-well plates, which contained 2 μl of test compound (in 100% DMSO) then 100 μl of ^3H-LSD (final concentration=3 nM) diluted in assay buffer (50 mM Tris pH 7.4, 4 mM CaCl2, 0.1% Ascorbic Acid), followed by the addition of 100 μl of membranes (approximately 15 μg membrane protein, diluted in assay buffer) from 5HT2b -expressing cells. 1 μM mianserin was used to calculate non-specific binding. The assay plates were incubated at 37° C. for 60 minutes, then the assay was terminated by filtration onto 96-well UniFilter™ plates (with GF/C filters—from PerkinElmer™) which were pre-soaked in 0.3% PEI. The filterplates were washed 2× with cold wash buffer (50 mM Tris, pH 7.4), then dried, scintillation fluid added and radioactivity determined in a Wallac Microbeta™ plate scintillation counter (PerkinElmer™). Concentration-response curves of the % inhibition of specific binding by test compounds versus the test compound concentration, was used to determine the IC50 for each compound and the Ki value calculated based on the Cheng-Prusoff equation (Ki=IC50/(1+(L/Kd)), where L is the concentration of the radioligand used in the binding assay and the Kd is based on previous saturation studies with the radioligand.

For the compound `C[C@@H]1CNCCN1c1ccc2c(n1)[C@@H](Oc1ccccc1F)CC2` [Example 4A-4], the Ki was 5.11 nM at human 5HT2c receptor (setting [2]), 4.14 nM on rat 5HT2a receptor (setting [3]) and 21 nM on human 5HT2b receptor.
Taken in the same sequence, the figures for `Fc1cc2c(c(O[C@H]3CCc4ccc(N5CCNCC5)nc43)c1)CCC2` [Example 3A-76, (7S)-7-[(6-fluoro-2,3-dihydro-1H-inden-4-yl)oxy]-2-piperazin-1-yl-6,7-dihydro-5H-cyclopenta[b]pyridine] were 3 nM, 2.8 nM and 53 nM.
For `C[C@@H]1CNCCN1c1ccc2c(n1)[C@@H](OCc1cccc(C#N)c1)CC2` [Example 2A-4, 3-[({(7S)-2-[(2R)-2-methylpiperazin-1-yl]-6,7-dihydro-5H-cyclopenta[b]pyridin-7-yl}oxy)methyl]benzonitrile], the Ki at human 5HT2c receptor (setting [2]) worked out at 6.9 nM; at rat 5HT2a receptor (setting [3]) it was 33.9 nM; on human 5HT2b receptor, 803 nM.
`c1ccc2c(O[C@H]3CCc4ccc(N5CCNCC5)nc43)cncc2c1` [Example 3A-83, 4-{[(7S)-2-piperazin-1-yl-6,7-dihydro-5H-cyclopenta[b]pyridin-7-yl]oxy}isoquinoline]: the Ki on human 5HT2c receptor turned out to be 17.9 nM; at rat 5HT2a receptor, 46.8 nM; at human 5HT2b receptor (read-out: 2bKi, receptor binding, 5HT2b), 145 nM.
On to `Fc1ccc(F)c(CO[C@H]2CCc3ccc(N4CCNCC4)nc32)c1` [Example 1A-37, (7S)-7-[(2,5-difluorobenzyl)oxy]-2-piperazin-1-yl-6,7-dihydro-5H-cyclopenta[b]pyridine], for which the Ki turned out to be 26.6 nM at human 5HT2c receptor, 25 nM at rat 5HT2a receptor and 159 nM on human 5HT2b receptor.
For the compound `O=C1Cc2cc(CCN3CCN(c4nsc5ccccc45)CC3)c(Cl)cc2N1` [Ziprasidone, 5-[2-[4-(1,2-benzisothiazol-3-yl)piperazin-1-yl]ethyl]-6-chloroindolin-2-one], in data set [1] (in vivo), the half-life is 6 to 7 h and the protein binding result is “extensive”. In data set [1] (taken with food), the Oral bioavailability entry is reported as “approximately 60%”.
